The source of these data is US9422303B2, “Formulations of water-insoluble chemical compounds and methods of using a formulation of compound FL118 for cancer therapy” (Health Research, Inc., priority 2010, dated 2016).

Data set [1] in a line: Solubility testing in DMSO, ethanol, water.
A further data set relates to human tumor xenografts. The experiment in a line: Antitumor activity/toxicity in human tumor mouse models (general statements). Type of data set: in vivo. To be noted: example: SCID mice, primary colon 11124 and 14528, weekly×4 (FIG. 15). The procedure: (§1) Six to 12-week-old female athymic nude mice (nu/nu, body weight 20-25 g) were purchased from Charles River Laboratories International, Inc. (Wilmington, Mass.) or Harlan Sprague Dawley Inc. (Indianapolis, Ind.). Six to 12-week-old female SCID mice were purchased from Roswell Animal facility (DLAR). Mice were housed at 5 mice per cage with water and food ad libitum. All animal experiments are performed in accordance with our IACUC-approved animal protocol.
Human tumor xenografts were initially established by injecting s.c 1×10^6 cultured cancer cells. The xenografts were then passed several generations by transplanting 40-50 mg non-necrotic tumor tissues via a trocar from the passage tumors. […]
(§2) Two axes (mm) of a tumor (L, longest axis; W, shortest axis) were measured with a Vernier caliper. […]
(§3) Antitumor activity was assessed by maximum tumor growth inhibition (MTGI), which is the mean tumor weight difference between treated group (MTWTG) and untreated control group (MTWCG) at the same time. The calculated formula is “MTGI=(MTWTG−MTWCG)÷MTWCG×100%”. […] Tumor response was expressed as 1) partial tumor response (PR) when tumor weight was reduced at least 50% initial tumor size on Day 0 and 2) complete tumor response (CR) which was defined as inability to detect tumor via palpitation at the initial tumor-transplanted site. […]

In data set [2] the test system is human HCT-8 colon tumor xenografts. Nature of the data set: Antitumor activity in nude mice bearing human HCT-8 colon tumor xenografts. Type of data set: in vivo. As for the experimental part: as §1
FL118 was first dissolved in DMSO at a concentration of 1 mg/ml, and further diluted in a fresh Tween-80/saline solution. The final work solution consists of FL118 (0.05 mg/ml), 75% saline (V/V), 20% Tween-80 (V/V) and 5% DMSO (V/V). Control solution (placebo or vehicle) is 75% saline, 20% Tween-80 and 5% DMSO without FL118. Other FDA-approved anticancer drugs used in this invention for a comparison were used clinical formulations from the corresponding manufactures.
(§4) Human tumor xenografts were initially established by injecting s.c 1×10^6 cultured cancer cells. The xenografts were then passed several generations by transplanting 40-50 mg non-necrotic tumor tissues via a trocar from the passage tumors. Human primary tumors were initially obtained from cancer patients at Roswell Park Cancer Institute and established in SCID mice. Human tumor xenografts used in this study include human head & neck squamous cell carcinoma FaDu, human primary head & neck tumor 17073, human ileocecal adenocarcinoma HCT-8, human colon cancer SW620 and human primary colon cancer 11124 and 14528. Treatment was initiated 7 days after tumor transplantation when the tumor reaches 200-250 mg, at which the treatment was designated as Day 0. All cancer cells used for tumor establishment were tested for mycoplasma free. The transplantable tumor has similar histological profile of cultured cells.
The following schedules were used: 1) i.p. daily×2: once a day for consecutive 2 days; 2) i.p. daily×3: once a day for consecutive 3 days; 3) daily×5: once a day for consecutive 5 days (i.p. or p.o.); 4) i.p.×3 (day 0, 2, 4): 3 times on day 0, 2, and 4; 5) i.p. 2 days/week×¾: 2 times a week for 3 or 4 consecutive weeks; 6) weekly×4: once a week for 4 consecutive weeks (i.p. or p.o.); 7) i.p. biweekly×4: once every two weeks for 8 weeks; 8) 2 days/week×4: give 2 times a week for 4 weeks; and 9) i.p.×1: one time drug i.p. injection on Day 0.
Two axes (mm) of a tumor (L, longest axis; W, shortest axis) were measured with a Vernier caliper. Tumor weight (mg) was estimated using a formula of “tumor weight=½ (L×W^2)”. Tumor measurement was taken daily for the first two weeks and/or during the FL118 treatment period (with the exception of weekend) and then three times a week for the following two weeks of post therapy and twice a week thereafter.
Antitumor activity was assessed by maximum tumor growth inhibition (MTGI), which is the mean tumor weight difference between treated group (MTWTG) and untreated control group (MTWCG) at the same time. The calculated formula is “MTGI=(MTWTG−MTWCG)÷MTWCG×100%”. The tumor doubling time (TDT) was defined as the mean time for the tumor reaching twice its initial weight from the time beginning the treatment (Day 0). Tumor response was expressed as 1) partial tumor response (PR) when tumor weight was reduced at least 50% initial tumor size on Day 0 and 2) complete tumor response (CR) which was defined as inability to detect tumor via palpitation at the initial tumor-transplanted site. […]

The subject of data set [3] is human FaDu head and neck tumor xenografts. Nature of the data set: Antitumor activity in nude mice bearing human FaDu head and neck tumor xenografts. The data set is classed as in vivo. The following applies: one-time i.p. injection at about MTD (FIG. 1). As for the experimental part: as §1
FL118 was first dissolved in DMSO at a concentration of 1 mg/ml, and further diluted in a fresh Tween-80/saline solution. The final work solution consists of FL118 (0.05 mg/ml), 75% saline (V/V), 20% Tween-80 (V/V) and 5% DMSO (V/V). […]
as §2, §3

The conditions of data set [4]: irinotecan, stated without source; cited from earlier work.
The subject of data set [5] is human 17073 primary head & neck xenografts. Nature of the data set: Antitumor activity and toxicity in SCID mice bearing human 17073 primary head & neck xenografts. The data set is classed as in vivo. To be noted: at MTD.
Description: FIG. 2 Comparison of antitumor activity and toxicity (body weight loss) of FL118 with irinotecan in SCID mice bearing human 17073 primary head & neck xenografts: A and B. Antitumor activity and toxicity of FL118 and irinotecan against 17073 tumors. C, D and E. Individual 17073 tumor in response to FL118 and irinotecan. The treatment schedule was weekly×4 as indicated by arrows. The doses for FL118 and irinotecan were their MTD in the weekly×4 schedule.
as §4
Two axes (mm) of a tumor (L, longest axis; W, shortest axis) were measured with a Vernier caliper. Tumor weight (mg) was estimated using a formula of “tumor weight=½ (L×W^2)”. […]
as §3

Consider `CCC1(O)C(=O)OCc2c1cc1n(c2=O)Cc2cc3cc4c(cc3nc2-1)OCO4` (racemic) [FL113, 10H,12H-1,3-Dioxolo[4,5-g]pyrano[3′,4′:6,7]indolizino[1,2-b]quinoline-8,11(7H,10H)-dione, 7-ethyl-7-hydroxy-, (+-)], for which the solubility in ethanol entry in data set [1] is “poorly dissolve in ethanol”. In the data set with human tumor xenografts, the “antitumor activity, comparison of FL118, FL113 and irinotecan” value is given as “better than irinotecan in most cases”.
In data set [2] (100 mg/kg, i.p. weekly × 4), `CCc1c2c(nc3ccc(OC(=O)N4CCC(N5CCCCC5)CC4)cc13)-c1cc3c(c(=O)n1C2)COC(=O)[C@]3(O)CC` [Irinotecan, irinotecan] had a CR of 0%, an MTGI of 94.1 ± 3.6%, a PR of 60% and a TDT of 32.7 ± 11.5 days. Further, the “antitumor activity compared with FDA-approved drugs” value in data set [2] (one-time i.p. injection at about MTD (FIG. 1)) was “second most effective compound”. Further, in data set [3], the “antitumor activity compared with FDA-approved drugs” value is on record as “second most effective compound”. Also, in data set [4], the MTD was 100 to 200 mg/kg. Besides, in data set [5] (weekly×4), the “body weight loss (toxicity)” value is “accumulated body weight loss” and the “tumor relapse after complete response” value was “rapid relapse”. Besides, the “mice with complete response” value in data set [5] (weekly×4, 5 mice per group) is listed as 40%.
